In patent US20250025411A1, “READILY SOLUBLE AND THERMOSTABLE GLUCAGON FORMULATIONS AND DELIVERY FOR MINI-DOSING AND CLOSED -LOOP PROPHYLACTIC TREATMENT OF HYPOGLYCEMIA” (Massachusetts Institute of Technology, priority 2023, published 2025):

Experiments:
[1] = High throughput screening of water-soluble solid excipients for glucagon dissolution; type: physicochemical; details: for Fold change vs. PBS Avg.: 30-minute incubation in pH 7.4 PBS containing 1 mg/mL excipient; for Fold change vs. PBS Avg. / Glucagon concentration Avg.: 37° C.; for Glucagon concentration Avg.: solubilized glucagon after 30-minute incubation of lyophilized glucagon in pH 7.4 PBS containing 1 mg/mL excipient
[2] = Dissolution kinetics of solid glucagon tablets; type: physicochemical; details: pH 7.4 PBS, 37° C.
From the text: Many of the top hits in the excipient screening (e.g., benzoic acid and sodium carbonate) promote glucagon dissolution by altering solution pH. Unlike many other successful excipients, the zwitterionic compound MSB can enhance glucagon dissolution in PBS without altering solution pH.
The excipients were cryo-milled and sieved to a particle size of 63-120 μm (230-120 mesh) before being combined with lyophilized glucagon powder. Solid glucagon formulations were manufactured by tablet compaction of the drug-excipient mixture (1 mm diameter die, 400 N compaction force) using an RD10A Natoli Tablet press. Magnesium stearate, a common lubricant used in tableting, was excluded from this process. The solid formulations were stored at 4° C. until use.
The dissolution kinetics of the solid formulations were assessed by incubating the solid glucagon formulations in 2 mL of pH 7.4 PBS, stored at 37° C. on an orbital shaker. At predetermined timepoints, 200 μL of supernatant was removed for HPLC analysis and an equivalent volume of release medium was replaced. The samples were diluted with equal parts of acetonitrile and analyzed using RP-HPLC.

Molecule	Fold change vs. PBS Avg. [1] [fold]	Glucagon concentration Avg. [1] [mg/mL]	enhancement of glucagon dissolution (statistical significance compared to no excipient) ([1]; 30-minute incubation in pH 7.4 PBS at 37° C.)	dissolution of solid glucagon formulation in neutral pH buffer [2]
CCCCCCCC[N+](C)(C)CCCS(=O)(=O)[O-] [Octyl sulfobetaine]	1.15	0.25		
O=C(O)CN(CCN(CC(=O)O)CC(=O)O)CCN(CC(=O)O)CC(=O)O [Pentetic Acid]	1.95	0.42		
O=S(=O)(O)CCN1CCN(CCS(=O)(=O)O)CC1 [Piperazine-N,N′-bis(2-ethanesulfonic acid)]	3.70	0.80	successfully enhanced the dissolution of glucagon	
O=C([O-])[C@H](O)[C@@H](O)[C@H](O)[C@H](O)CO.[K+] [Potassium Gluconate]	1.61	0.35		
O=S([O-])S(=O)(=O)[O-].[K+].[K+] [Potassium Metabisulfite]	2.13	0.46		
[Cl-].[K+] [Potassium chloride]	1.89	0.41		
O=C1NS(=O)(=O)c2ccccc21.[Na] [Saccharin Sodium]	1.21	0.26		
O=S([O-])S(=O)[O-].[Na+].[Na+] [Sodium Dithionite]	2.25	0.49		
O=C([O-])[C@H](O)[C@@H](O)[C@H](O)[C@H](O)CO.[Na+] [Sodium Gluconate]	0.69	0.15		
O=C([O-])c1ccccc1O.[Na+] [Sodium Salicylate]	1.84	0.40		
OC[C@H]1O[C@@](CO)(O[C@H]2O[C@H](CO)[C@@H](O)[C@H](O)[C@H]2O)[C@@H](O)[C@@H]1O [Sucrose]	1.32	0.28		
O=S(=O)(O)CCNC(CO)(CO)CO [TES]	1.75	0.38		
O=C(OC[C@H]1O[C@@H](OC(=O)c2cc(O)c(O)c(OC(=O)c3cc(O)c(O)c(O)c3)c2)[C@H](OC(=O)c2cc(O)c(O)c(OC(=O)c3cc(O)c(O)c(O)c3)c2)[C@@H](OC(=O)c2cc(O)c(O)c(OC(=O)c3cc(O)c(O)c(O)c3)c2)[C@@H]1OC(=O)c1cc(O)c(O)c(OC(=O)c2cc(O)c(O)c(O)c2)c1)c1cc(O)c(O)c(OC(=O)c2cc(O)c(O)c(O)c2)c1 [Tannic Acid]	0.08	0.02		
NCCS(=O)(=O)O [Taurine]	1.11	0.24		
NC(CO)(CO)CO [Tris base]	2.50	0.54		
CC(C)[C@H](N)C(=O)O [Valine]	1.89	0.41		
Betadex Sulfobutyl Ether Sodium	1.56	0.34		
Bovine serum albumin	2.86	0.62		
Methyl-B-Cyclodextrin	1.27	0.27		
Sodium deoxycholate	1.75	0.38		
glucagon [unformulated glucagon]				remained largely insoluble
